Assays:
adipose cell 3D culture = assay: Anti-MyoD staining, myogenesis differentiation in adipose cell 3D culture; type: cell-based; details: w/AZA-CR
Description: A myogenic marker such as MyoD was stained on day 14 adipose cell 3D culture. The anti-MyoD antibody is a monoclonal available from Pierce.

MSC or adipose cells = assay: Anti-N-cadherin staining, cardiomyocyte differentiation; type: cell-based; details: w/AZA-CR; 4.5% TG-Gel
[1] = test system: rat adipose derived cells; assay: Alizarin Red S calcium deposition, osteogenic differentiation in 3D TG-Gel culture; type: cell-based; details: day 14
Procedure: Using the matrix as described above, the medium was changed to regular growth medium at day 5 and maintained for 14 days. Alkaline phosphatase (ALP) activity and staining were performed to characterize early osteogenesis at day 5 and calcium staining at day 14. ALP activity was determined by biochemical assay based on conversion of p-nitrophenyl phosphate to p-nitrophenol (pNPP), which was measured spectrophotometrically at 405 nm absorbance. Briefly, TG-Gel-Cell, a transglutaminase crosslinked gelatin gel and cell mixture, construct was washed twice with PBS and homogenized with buffer solution (0.25% TritonX-100 in PBS). After three freezing-thawing cycles, cells were released from TG-Gel by adding 50 μL of 0.25% trypsin and incubated at 37° C. for 4 hours. ALP activity was then quantified by using p-NPP as a substrate (Pierce, USA). The absorbance was measured by a multiplate reader (Molecular Devices, CA) after 30 minutes of incubation at 37° C. The ALP activity was specified as an arbitrary unit of ALP absorbance that normalized with cell numbers. Alizarin Red S staining as late marker of osteogenic differentiation was performed to determine the degree of calcium deposition as described. […] The supernatant was collected and absorbance was measured by a multiplate reader (Molecular Devices, CA). […]

[2] = test system: rat adipose derived cells; assay: Ki-67 proliferation marker immunohistochemical staining in 3D TG-Gel culture; type: cell-based
Procedure: 10^6/m1 rat adipose derived cells was suspended in the gelatin-transglutaminase crosslinked gel also referred to TG-Gel. Gel concentrations ranged from 3%, 4.5%, 6%, and 7.5%. A cell suspension in 20 μL volume was transferred in each well of 48 well culture plate followed by incubation at 37° C. for 30 min for gelation. 1.0 ml of medium (10%FBS/DMEM) with 5 nM Aza was added in each well and the plate was placed in a 5% CO2 37° C. incubator for 5 day culture. At day 5, cell proliferation marker (Ki-67) immune histochemical staining was performed on 3D culture. Medium without Aza was used as control.
The detection of Ki67, a proliferation marker, was performed using Anti-Ki-67 (Rabbit Monoclonal antibody, Clone SP6, from Thermo Scientific).

[3] = test system: >8 month old retired rats; assay: Cranial defect model, bone growth and healing by histology; type: in vivo, rat; details: 500 nM Aza in collagen sponge; 5 mm skull defect; no exogenous BMP-2; four weeks
Procedure: Collagen matrix (as described above) was prepared and cut into 5 mm discs. An 5 mm diameter circular opening was created in the skull of >8 month old retired rats using circular drill bit including a lip to restrict the depth of the circular cutting. 500 nM of Aza was applied directly into the collagen sponge before implantation. Control included collagen discs without added Aza-CR but same volume of PBS. After four weeks of implantation, bone growth and healing status were evaluated histologically.

[4] = test system: rat adipose derived cells; assay: Alkaline phosphatase (ALP) activity, osteogenic differentiation in 3D TG-Gel culture; type: cell-based; details: day 5
Procedure: Using the matrix as described above, the medium was changed to regular growth medium at day 5 and maintained for 14 days. Alkaline phosphatase (ALP) activity and staining were performed to characterize early osteogenesis at day 5 and calcium staining at day 14. ALP activity was determined by biochemical assay based on conversion of p-nitrophenyl phosphate to p-nitrophenol (pNPP), which was measured spectrophotometrically at 405 nm absorbance. Briefly, TG-Gel-Cell, a transglutaminase crosslinked gelatin gel and cell mixture, construct was washed twice with PBS and homogenized with buffer solution (0.25% TritonX-100 in PBS). After three freezing-thawing cycles, cells were released from TG-Gel by adding 50 μL of 0.25% trypsin and incubated at 37° C. for 4 hours. ALP activity was then quantified by using p-NPP as a substrate (Pierce, USA). The absorbance was measured by a multiplate reader (Molecular Devices, CA) after 30 minutes of incubation at 37° C. The ALP activity was specified as an arbitrary unit of ALP absorbance that normalized with cell numbers. Alizarin Red S staining as late marker of osteogenic differentiation was performed to determine the degree of calcium deposition as described. […] The supernatant was collected and absorbance was measured by a multiplate reader (Molecular Devices, CA).

Fisher rats = assay: Cartilage defect model (osteochondral defect in trochlear groove), histology; type: in vivo, rat; details: 4.5% Tg-Gel + 50 μL Aza (500 nM) implanted in defect; at 7 days; cell morphology resembles chondrogenic cells
Procedure: (§1) Fisher rats (7-8-weeks old, 200-250 g each) were used in this study. They were randomly enrolled into two experimental groups,A, 4.5% Tg-Gel +50 μL PBS and B, 4.5% Tg-Gel +50 μL Aza (500 nM), 4 animals per group. A 3-mm diameter×2-mm deep osteochondral defect was drilled into the rat trochlear groove, using a dermal biopsy punch (Miltex, Inc.). Implant gel was placed in the defect area. Skin was closed with 4-0 suture. […]
as §1, with “Tg-Gel+50” for “Tg-Gel +50”, “diamete×2-mm” for “diameter×2-mm”

In the case of `Nc1ncn([C@@H]2O[C@H](CO)[C@@H](O)[C@H]2O)c(=O)n1` [AZA-CR, 5-azacytidine], the “Anti-MyoD on day 14, Center and Peripheral (evenly distributed)” value (adipose cell 3D culture; 4.5% TG-Gel) is reported as about 80% Evenly Distributed, the “Anti-MyoD on day 14, Center and Peripheral (evenly distributed)” value (adipose cell 3D culture; 6% TG-Gel) is reported as about 70% Evenly Distributed and the “Anti-N-Cadherin, Center” value (MSC or adipose cells) is reported as about 50%. The calcium deposition ([1]; versus without AZA-CR) was “enhanced”, the “TG-Gel concentration at which calcium deposition peaked” value ([1]; with and without AZA-CR) was 9 % TG-Gel and the “Ki67 positive staining, Aza group versus control” value ([2]; 3%-4.5% gel condition) was “no difference”. The “Ki67 positive staining, Aza group versus control” value ([2]; 6%-7% gel condition, evenly distributed in whole 3D construct) was “significantly more positive stained cells”, the “Anti - Ki67, Center” value ([2]; w/AZA-CR (5 nM Aza in medium), 4.5% TG-Gel, day 5) was about 30% and the “Anti - Ki67, Center and Peripheral (evenly distributed)” value ([2]; w/AZA-CR (5 nM Aza in medium), 6% TG-Gel, day 5) was “Evenly distributed (~80%)”. The “Anti - Ki67, Center and Peripheral (evenly distributed)” value ([2]; w/AZA-CR (5 nM Aza in medium), 7.5% TG-Gel, day 5) was “Evenly distributed (~50%)”, the “bone remodeling at the bony defect site” value [3] was “significant bone remodeling” and the ALP activity ([4]; versus without AZA-CR) was “enhanced”. For the same compound, the “TG-Gel concentration at which ALP peaked” value ([4]; with and without AZA-CR) was 6 % TG-Gel and the “histology of osteochondral defect site, area adjacent to subchondral bone” value (Fisher rats) was “neo cell infiltration”.
